# Data: patent publication US20250230193A1, “CYCLIC COMPOUND HAVING SELECTIVE KRAS INHIBITORY EFFECT ON HRAS AND NRAS” (CHUGAI SEIYAKU KABUSHIKI KAISHA, priority 2022, published 2025)
# Experiments:
# [1] = molecular target: GDP-bound NRAS wild-type protein (Homo sapiens, UniProt P01111); experiment: Binding to NRAS by surface plasmon resonance (SPR), Single Cycle Kinetics; settings: SPR; KD ratio class
# [2] = molecular target: GDP-bound HRAS wild-type protein (Homo sapiens, UniProt P01112); experiment: Binding to HRAS by surface plasmon resonance (SPR), Single Cycle Kinetics; settings: SPR; KD ratio class
# [3] = system: human lung cancer strain NCI-H441; experiment: cells; settings: NCI-H441, 96 h, read-out: NCI-H441 IC50 (nM)
# GDP-bound HRAS wild-type protein, sequence (P01112 whole entry): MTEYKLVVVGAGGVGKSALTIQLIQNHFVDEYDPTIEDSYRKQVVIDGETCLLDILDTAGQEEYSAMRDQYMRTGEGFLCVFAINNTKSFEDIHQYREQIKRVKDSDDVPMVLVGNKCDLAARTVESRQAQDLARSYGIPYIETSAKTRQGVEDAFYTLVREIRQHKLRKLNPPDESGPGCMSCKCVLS
# GDP-bound NRAS wild-type protein, sequence (P01111 whole entry): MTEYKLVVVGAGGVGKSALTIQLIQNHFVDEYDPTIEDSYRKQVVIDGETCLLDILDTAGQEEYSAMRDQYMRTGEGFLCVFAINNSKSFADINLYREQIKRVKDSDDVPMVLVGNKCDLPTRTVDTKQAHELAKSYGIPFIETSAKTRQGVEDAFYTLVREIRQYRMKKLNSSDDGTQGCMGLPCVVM
IC50 [3] [nM],Compound,NRAS/KRAS (ratio of KD value for GDP-bound NRAS wild-type protein to KD value for KRAS) [1],HRAS/KRAS (ratio of KD value for GDP-bound HRAS wild-type protein to KD value for KRAS) [2]
386,CCO[C@@H]1C[C@H]2C(=O)NC3(CCC3)C(=O)N(C)[C@@H](C3CCCC3)C(=O)N(C)[C@@H](C(=O)N(C)C)CC(=O)N(C)[C@@H](CC3CCCC3)C(=O)N[C@@H]([C@@H](C)CC)C(=O)N(C)CC(=O)N(C)[C@H]3C/C=C\CCN(C3=O)[C@@H](Cc3ccc(C(F)(F)F)cc3)C(=O)N(C)CC(=O)N[C@@H](CCc3cc(F)c(C(F)(F)F)c(F)c3)C(=O)N2C1 [PP1235],B (a compound having 3 or more and less than 10 is denoted as B),C (A compound having a KD ratio of 0.1 or more and less than 3 is denoted as C)
55.4,CCO[C@@H]1C[C@H]2C(=O)NC3(CCC3)C(=O)N(C)[C@@H](C3CCCC3)C(=O)N(C)[C@H](C(=O)N(C)C)CC(=O)N(C)[C@@H](CC)C(=O)N[C@@H]([C@@H](C)CC)C(=O)N(C)CC(=O)N(C)[C@H]3C/C=C\CCN(C3=O)[C@@H](Cc3ccc(C(F)(F)F)cc3)C(=O)N(C)CC(=O)N[C@@H](CCc3ccc(Cl)c(Cl)c3)C(=O)N2C1 [PP1249],A (a compound having 10 or more and less than 20 is denoted as A),A (a compound having 10 or more and less than 20 is denoted as A)
18.7,CCC[C@H]1C(=O)N[C@@H]([C@@H](C)CC)C(=O)N(C)CC(=O)N(C)[C@H]2C/C=C\CCN(C2=O)[C@@H](Cc2ccc(C(F)(F)F)cc2)C(=O)N(C)CC(=O)N[C@@H](CCc2ccc(Cl)c(Cl)c2)C(=O)N2C[C@H](OCC)C[C@H]2C(=O)NC2(CCC2)C(=O)N(C)[C@@H](C2CCCC2)C(=O)N(C)[C@H](C(=O)N(C)C)CC(=O)N1C [PP1250],AA (a compound having 20 or more is denoted as AA),A (a compound having 10 or more and less than 20 is denoted as A)
10.2,CCO[C@@H]1C[C@H]2C(=O)NC3(CCC3)C(=O)N(C)[C@@H](C3CCCC3)C(=O)N(C)[C@H](C(=O)N(C)C)CC(=O)N(C)[C@@H](CC(C)C)C(=O)N[C@@H]([C@@H](C)CC)C(=O)N(C)CC(=O)N(C)[C@H]3C/C=C\CCN(C3=O)[C@@H](Cc3ccc(C(F)(F)F)cc3)C(=O)N(C)CC(=O)N[C@@H](CCc3ccc(Cl)c(Cl)c3)C(=O)N2C1 [PP1251],AA (a compound having 20 or more is denoted as AA),A (a compound having 10 or more and less than 20 is denoted as A)
51.2,CCCCCC[C@H]1C(=O)N[C@@H]([C@@H](C)CC)C(=O)N(C)CC(=O)N(C)[C@H]2C/C=C\CCN(C2=O)[C@@H](Cc2ccc(C(F)(F)F)cc2)C(=O)N(C)CC(=O)N[C@@H](CCc2ccc(Cl)c(Cl)c2)C(=O)N2C[C@H](OCC)C[C@H]2C(=O)NC2(CCC2)C(=O)N(C)[C@@H](C2CCCC2)C(=O)N(C)[C@H](C(=O)N(C)C)CC(=O)N1C [PP1252],AA (a compound having 20 or more is denoted as AA),A (a compound having 10 or more and less than 20 is denoted as A)
28.3,CCO[C@@H]1C[C@H]2C(=O)NC3(CCC3)C(=O)N(C)[C@@H](C3CCCC3)C(=O)N(C)[C@H](C(=O)N(C)C)CC(=O)N(C)[C@@H](CC3CCCC3)C(=O)N[C@@H]([C@@H](C)CC)C(=O)N(C)CC(=O)N(C)[C@H]3C/C=C\CCN(C3=O)[C@@H](Cc3ccc(C(F)(F)F)cc3)C(=O)N(C)CC(=O)N[C@@H](CCc3ccc(Cl)c(Cl)c3)C(=O)N2C1 [PP1254],AA (a compound having 20 or more is denoted as AA),A (a compound having 10 or more and less than 20 is denoted as A)
156,CCO[C@@H]1C[C@H]2C(=O)NC3(CCC3)C(=O)N(C)[C@@H](C3CCCC3)C(=O)N(C)[C@H](C(=O)N(C)C)CC(=O)N(C)[C@@H](CC)C(=O)N[C@@H]([C@@H](C)CC)C(=O)N(C)CC(=O)N(C)[C@H]3C/C=C\CCN(C3=O)[C@@H](Cc3ccc(C(F)(F)F)cc3)C(=O)N(C)CC(=O)N[C@@H](CCc3ccc4sccc4c3)C(=O)N2C1 [PP1255],A (a compound having 10 or more and less than 20 is denoted as A),A (a compound having 10 or more and less than 20 is denoted as A)
69,CCC[C@H]1C(=O)N[C@@H]([C@@H](C)CC)C(=O)N(C)CC(=O)N(C)[C@H]2C/C=C\CCN(C2=O)[C@@H](Cc2ccc(C(F)(F)F)cc2)C(=O)N(C)CC(=O)N[C@@H](CCc2ccc3sccc3c2)C(=O)N2C[C@H](OCC)C[C@H]2C(=O)NC2(CCC2)C(=O)N(C)[C@@H](C2CCCC2)C(=O)N(C)[C@H](C(=O)N(C)C)CC(=O)N1C [PP1256],A (a compound having 10 or more and less than 20 is denoted as A),A (a compound having 10 or more and less than 20 is denoted as A)
54.3,CCO[C@@H]1C[C@H]2C(=O)NC3(CCC3)C(=O)N(C)[C@@H](C3CCCC3)C(=O)N(C)[C@H](C(=O)N(C)C)CC(=O)N(C)[C@@H](CC(C)C)C(=O)N[C@@H]([C@@H](C)CC)C(=O)N(C)CC(=O)N(C)[C@H]3C/C=C\CCN(C3=O)[C@@H](Cc3ccc(C(F)(F)F)cc3)C(=O)N(C)CC(=O)N[C@@H](CCc3ccc4sccc4c3)C(=O)N2C1 [PP1257],A (a compound having 10 or more and less than 20 is denoted as A),A (a compound having 10 or more and less than 20 is denoted as A)
62,CCCCCC[C@H]1C(=O)N[C@@H]([C@@H](C)CC)C(=O)N(C)CC(=O)N(C)[C@H]2C/C=C\CCN(C2=O)[C@@H](Cc2ccc(C(F)(F)F)cc2)C(=O)N(C)CC(=O)N[C@@H](CCc2ccc3sccc3c2)C(=O)N2C[C@H](OCC)C[C@H]2C(=O)NC2(CCC2)C(=O)N(C)[C@@H](C2CCCC2)C(=O)N(C)[C@H](C(=O)N(C)C)CC(=O)N1C [PP1259],A (a compound having 10 or more and less than 20 is denoted as A),A (a compound having 10 or more and less than 20 is denoted as A)
60.4,CCO[C@@H]1C[C@H]2C(=O)NC3(CCC3)C(=O)N(C)[C@@H](C3CCCC3)C(=O)N(C)[C@H](C(=O)N(C)C)CC(=O)N(C)[C@@H](CC3CC3)C(=O)N[C@@H]([C@@H](C)CC)C(=O)N(C)CC(=O)N(C)[C@H]3C/C=C\CCN(C3=O)[C@@H](Cc3ccc(C(F)(F)F)cc3)C(=O)N(C)CC(=O)N[C@@H](CCc3ccc4sccc4c3)C(=O)N2C1 [PP1260],A (a compound having 10 or more and less than 20 is denoted as A),A (a compound having 10 or more and less than 20 is denoted as A)
56.7,CCO[C@@H]1C[C@H]2C(=O)NC3(CCC3)C(=O)N(C)[C@@H](C3CCCC3)C(=O)N(C)[C@H](C(=O)N(C)C)CC(=O)N(C)[C@@H](CC)C(=O)N[C@@H]([C@@H](C)CC)C(=O)N(C)CC(=O)N(C)[C@H]3C/C=C\CCN(C3=O)[C@@H](Cc3ccc(C(F)(F)F)cc3)C(=O)N(C)CC(=O)N[C@@H](CCc3cc(F)c(Cl)c(F)c3)C(=O)N2C1 [PP1262],A (a compound having 10 or more and less than 20 is denoted as A),B (a compound having 3 or more and less than 10 is denoted as B)
18.9,CCO[C@@H]1C[C@H]2C(=O)NC3(CCC3)C(=O)N(C)[C@@H](C3CCCC3)C(=O)N(C)[C@H](C(=O)N(C)C)CC(=O)N(C)[C@@H](CC(C)C)C(=O)N[C@@H]([C@@H](C)CC)C(=O)N(C)CC(=O)N(C)[C@H]3C/C=C\CCN(C3=O)[C@@H](Cc3ccc(C(F)(F)F)cc3)C(=O)N(C)CC(=O)N[C@@H](CCc3cc(F)c(Cl)c(F)c3)C(=O)N2C1 [PP1263],A (a compound having 10 or more and less than 20 is denoted as A),A (a compound having 10 or more and less than 20 is denoted as A)
15.9,CCO[C@@H]1C[C@H]2C(=O)NC3(CCC3)C(=O)N(C)[C@@H](C3CCCC3)C(=O)N(C)[C@H](C(=O)N(C)C)CC(=O)N(C)[C@@H](CC3CCCC3)C(=O)N[C@@H]([C@@H](C)CC)C(=O)N(C)CC(=O)N(C)[C@H]3C/C=C\CCN(C3=O)[C@@H](Cc3ccc(C(F)(F)F)cc3)C(=O)N(C)CC(=O)N[C@@H](CCc3cc(F)c(Cl)c(F)c3)C(=O)N2C1 [PP1264],A (a compound having 10 or more and less than 20 is denoted as A),B (a compound having 3 or more and less than 10 is denoted as B)
14.1,CCO[C@@H]1C[C@H]2C(=O)NC3(CCC3)C(=O)N(C)[C@@H](C3CCCC3)C(=O)N(C)[C@H](C(=O)N(C)C)CC(=O)N(C)[C@@H](CC)C(=O)N[C@@H]([C@@H](C)CC)C(=O)N(C)CC(=O)N(C)[C@H]3C/C=C\CCN(C3=O)[C@@H](Cc3ccc(C(F)(F)F)cc3)C(=O)N(C)CC(=O)N[C@@H](CCc3ccc(C(F)(F)F)c(C)c3)C(=O)N2C1 [PP1265],A (a compound having 10 or more and less than 20 is denoted as A),B (a compound having 3 or more and less than 10 is denoted as B)
